Source: doi:10.1101/2022.06.14.496144v1, “Crystal structure and functional peculiarities of a primordial Orange Carotenoid Protein (OCPX)” (biorxiv, 2022)
Residue numbers refer to the chain shown, from its start.

Key:
Format in all cases: binding
GlOCPX [1] = target: T1, GlOCPX (Gloeobacter kilaueensis, UniProt U5QHX0, E25A); experiment: X-ray crystal structure, […] Å; conditions: between NTD and CTD; pH 6.5 crystals
T1 construct: gene GKIL_2275; full length M1-R322, codon-optimised, E. coli C41(DE3) making ECH or CAN, His tag cut by 3C leaving N-terminal GPH
T1 sequence (U5QHX0 1-322 E25A): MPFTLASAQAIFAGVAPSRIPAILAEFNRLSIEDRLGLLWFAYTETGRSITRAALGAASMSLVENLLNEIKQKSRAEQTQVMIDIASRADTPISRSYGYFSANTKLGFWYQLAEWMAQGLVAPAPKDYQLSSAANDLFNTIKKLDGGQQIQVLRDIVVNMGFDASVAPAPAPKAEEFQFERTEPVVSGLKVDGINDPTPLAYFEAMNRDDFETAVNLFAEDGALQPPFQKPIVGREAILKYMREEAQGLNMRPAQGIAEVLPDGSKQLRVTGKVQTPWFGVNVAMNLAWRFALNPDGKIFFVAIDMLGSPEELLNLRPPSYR

GlOCPX [2] = target: T2, GlOCPX (Gloeobacter kilaueensis, UniProt U5QHX0); experiment: co-purified holoprotein, SEC with absorbance spectra, photocycle; conditions: pH 7.6; ECH-producing E. coli
T2 construct: gene GKIL_2275; full length M1-R322, codon-optimised, E. coli C41(DE3) making ECH or CAN, His tag cut by 3C leaving N-terminal GPH
T2 sequence (U5QHX0 1-322): T1 sequence (U5QHX0 1-322 E25A) with A25E

ΔNTE-GlOCPX = target: T3, ΔNTE-GlOCPX (Gloeobacter kilaueensis, UniProt U5QHX0); experiment: co-purified holoprotein, absorbance, photocycle; conditions: pH 7.6; ECH-producing E. coli
T3 construct: gene GKIL_2275; N-terminal extension M1-P17 removed, E. coli C41(DE3) making ECH, His-3C tag
T3 sequence (U5QHX0 18-322): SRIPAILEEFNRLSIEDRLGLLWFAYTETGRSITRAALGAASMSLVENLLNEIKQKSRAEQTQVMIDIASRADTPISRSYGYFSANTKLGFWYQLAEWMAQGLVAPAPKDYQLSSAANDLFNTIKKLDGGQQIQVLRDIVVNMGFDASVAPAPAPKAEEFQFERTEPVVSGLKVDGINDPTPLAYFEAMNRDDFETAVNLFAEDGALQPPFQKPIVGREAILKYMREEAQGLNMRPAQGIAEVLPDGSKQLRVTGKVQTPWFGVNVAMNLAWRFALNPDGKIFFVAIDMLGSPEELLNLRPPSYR

## CC1=C(/C=C/C(C)=C/C=C/C(C)=C/C=C/C=C(C)/C=C/C=C(C)/C=C/C2=C(C)C(=O)CCC2(C)C)C(C)(C)CCC1 [ECH, echinenone]
GlOCPX [1]
  X-ray crystal structure, 1.7 Å: A well-defined density revealed that the GlOCPX-embedded carotenoid is echinenone (ECH)
GlOCPX [2]
  co-purified holoprotein, SEC with absorbance spectra, photocycle: produced GlOCPX in Escherichia coli strains synthesizing ketocarotenoids canthaxanthin (CAN) or echinenone (ECH)
ΔNTE-GlOCPX
  co-purified holoprotein, absorbance, photocycle: All samples uniformly contained ECH as a cofactor
